The values that follow come from patent publication US20230295118A1 (EnhancedBio Inc., priority 2022, published 2023).

By DC50 is commonly meant the concentration giving 50% degradation. Read a low DC50 as degradation at low concentration. Broadly, the Dmax is the largest share of the target that was removed. Low readings indicate shallow degradation, high ones deep degradation.

SMILES strings stand for the structures.

Format in all cases: cell-based
For test [1], the system named is mantle cell lymphoma cell (Mino or JeKo-1). In words: Antiproliferative effect, MTS cell viability assay. Conditions: 72 h, mantle cell lymphoma cell (Mino or JeKo-1), MTS assay, read-out: IC50 (anti-proliferation). The procedure: Antiproliferative effect of the exemplary compounds was assessed in B-cell malignancy models.
To assess the effect of the exemplary compounds on cell viability in B-cell malignancy models by degradation of CDK4/6 proteins, Mino cells were treated with varying concentrations of exemplary compounds (0, 0.0001, 0.001, 0.01, 0.1, 1 μM) or positive control (palbociclib and abemaciclib). Under these conditions, cell viability was determined by an MTS assay. Cytotoxicity was assayed by the determination of reduced tetrazolium (formazan) created by metabolically active cells as detected at 490 nanometers (nm) absorbance using a microplate reader (BMG Labtech, Cary, NC, USA).
The exemplary compounds attenuated the viability of Mino cells in a concentration-dependent manner at 72 h post treatment. Results are shown in Table 1 and FIGS. 2-15 for each exemplary compound.
(Tetrazolium dyes change colour on reduction, which living cells bring about.)

The target of the next test is T1, CDK4 (Homo sapiens, UniProt P11802).
T1 construct: endogenous in cells
T1 sequence (P11802 whole entry): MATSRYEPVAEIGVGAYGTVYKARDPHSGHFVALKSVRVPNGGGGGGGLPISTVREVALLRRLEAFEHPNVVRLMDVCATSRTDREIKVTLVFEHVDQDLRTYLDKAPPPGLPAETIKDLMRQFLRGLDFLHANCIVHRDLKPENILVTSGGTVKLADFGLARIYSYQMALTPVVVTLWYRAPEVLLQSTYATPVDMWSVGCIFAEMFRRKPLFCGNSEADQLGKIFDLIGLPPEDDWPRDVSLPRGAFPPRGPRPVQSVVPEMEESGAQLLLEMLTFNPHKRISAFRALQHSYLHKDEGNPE
Kind of test: CDK4 degradation (DC50, Dmax).

Another test concerns the target T2, CDK6 (Homo sapiens, UniProt Q00534).
T2 construct: endogenous in cells
Kind of test: CDK6 degradation (DC50, Dmax).

T2 sequence (Q00534 whole entry): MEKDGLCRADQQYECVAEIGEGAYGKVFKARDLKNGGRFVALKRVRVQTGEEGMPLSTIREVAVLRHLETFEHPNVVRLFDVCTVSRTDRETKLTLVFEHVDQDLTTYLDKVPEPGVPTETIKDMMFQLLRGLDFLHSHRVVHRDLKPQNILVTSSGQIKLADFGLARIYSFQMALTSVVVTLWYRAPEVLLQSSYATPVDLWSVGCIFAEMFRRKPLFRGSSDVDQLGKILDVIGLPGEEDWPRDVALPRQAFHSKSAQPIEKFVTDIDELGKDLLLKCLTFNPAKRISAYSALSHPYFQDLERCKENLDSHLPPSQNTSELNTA

On to `CC(=O)c1c(C)c2cnc(Nc3ccc(N4CCN(C(=O)N5CCC(CC6CCN(c7ccc8c(c7)CN(C7CCC(=O)NC7=O)C8=O)CC6)CC5)CC4)cn3)nc2n(C2CCCC2)c1=O` (centres unmarked) [Compound 14, 3-(5-(4-((1-(4-(6-((6-acetyl-8-cyclopentyl-5-methyl-7-oxo-7,8-dihydropyrido[2,3-d]pyrimidin-2-yl)amino)pyridin-3-yl)piperazine-1-carbonyl)piperidin-4-yl)methyl)piperidin-1-yl)-1-oxoisoindolin-2-yl)piperidine-2,6-dione], for which the IC50 in test [1] is 50 to 200 nM. At CDK4, this compound returned a DC50 above 200 nM and a Dmax above 50%. At CDK6, the DC50 was above 200 nM and the Dmax was above 60%.
Regarding `CC(=O)c1c(C)c2cnc(Nc3ccc(N4CCN(C(=O)N5CCN(CC6CCN(c7ccc8c(c7)C(=O)N(C7CCC(=O)NC7=O)C8=O)CC6)CC5)CC4)cn3)nc2n(C2CCCC2)c1=O` (centres unmarked) [Compound 15, 5-(4-((4-(4-(6-((6-acetyl-8-cyclopentyl-5-methyl-7-oxo-7,8-dihydropyrido[2,3-d]pyrimidin-2-yl)amino)pyridin-3-yl)piperazine-1-carbonyl)piperazin-1-yl)methyl)piperidin-1-yl)-2-(2,6-dioxopiperidin-3-yl) isoindoline-1,3-dione], the IC50 in test [1] was above 200 nM. Moreover, the DC50 on CDK4 and at CDK6 was above 200 nM in each case. Moreover, the Dmax on CDK4 and at CDK6 was above 50% throughout.
`CC(=O)c1c(C)c2cnc(Nc3ccc(N4CCN(C(=O)N5CCN(CC6CCN(c7ccc8c(c7)CN(C7CCC(=O)NC7=O)C8=O)CC6)CC5)CC4)cn3)nc2n(C2CCCC2)c1=O` (centres unmarked) [Compound 16, 3-(5-(4-((4-(4-(6-((6-acetyl-8-cyclopentyl-5-methyl-7-oxo-7,8-dihydropyrido[2,3-d]pyrimidin-2-yl)amino)pyridin-3-yl)piperazine-1-carbonyl)piperazin-1-yl)methyl)piperidin-1-yl)-1-oxoisoindolin-2-yl)piperidine-2,6-dione]: the IC50 in test [1] is above 200 nM. At CDK4, this compound had a DC50 above 200 nM and a maximal degradation (Dmax) above 50%. In addition, at CDK6, the DC50 was above 200 nM and the maximal degradation (Dmax) is above 50%.
With `CC(=O)c1c(C)c2cnc(Nc3ccc(N4CCN(C(=O)N5CCC(CN6CCC(c7ccc8c(c7)C(=O)N(C7CCC(=O)NC7=O)C8=O)CC6)CC5)CC4)cn3)nc2n(C2CCCC2)c1=O` (centres unmarked) [Compound 17, 5-(1-((1-(4-(6-((6-acetyl-8-cyclopentyl-5-methyl-7-oxo-7,8-dihydropyrido[2,3-d]pyrimidin-2-yl)amino)pyridin-3-yl)piperazine-1-carbonyl)piperidin-4-yl)methyl)piperidin-4-yl)-2-(2,6-dioxopiperidin-3-yl)isoindoline-1,3-dione], in test [1], the IC50 is 50 to 200 nM. For the same compound, on CDK4, the half-maximal degradation concentration (DC50) lay within 50 to 200 nM and the maximal degradation (Dmax) was above 50%. On CDK6, this compound showed a DC50 of 50 to 200 nM and a Dmax above 50%.
Take `CC(=O)c1c(C)c2cnc(Nc3ccc(N4CCN(C(=O)N5CCC(CN6CCC(c7ccc8c(c7)CN(C7CCC(=O)NC7=O)C8=O)CC6)CC5)CC4)cn3)nc2n(C2CCCC2)c1=O` (centres unmarked) [Compound 18, 3-(5-(1-((1-(4-(6-((6-acetyl-8-cyclopentyl-5-methyl-7-oxo-7,8-dihydropyrido[2,3-d]pyrimidin-2-yl)amino)pyridin-3-yl)piperazine-1-carbonyl)piperidin-4-yl)methyl)piperidin-4-yl)-1-oxoisoindolin-2-yl) piperidine-2,6-dione]: in test [1], the IC50 is above 200 nM. The DC50 on CDK4 and at CDK6 was above 200 nM in each case. The Dmax on CDK4 and on CDK6 was above 50% each time.
Turning to `CC(=O)c1c(C)c2cnc(Nc3ccc(N4CCN(C(=O)N5CCC(CCN6CCN(c7ccc8c(c7)C(=O)N(C7CCC(=O)NC7=O)C8=O)CC6)CC5)CC4)cn3)nc2n(C2CCCC2)c1=O` (centres unmarked) [Compound 19, 5-(4-(2-(1-(4-(6-((6-acetyl-8-cyclopentyl-5-methyl-7-oxo-7,8-dihydropyrido[2,3-d]pyrimidin-2-yl)amino)pyridin-3-yl)piperazine-1-carbonyl)piperidin-4-yl)ethyl)piperazin-1-yl)-2-(2,6-dioxopiperidin-3-yl)isoindoline-1,3-dione], the IC50 in test [1] is below 50 nM. Further, the DC50 at CDK4 and on CDK6 was 50 to 200 nM in each case. The greatest degradation seen (Dmax) on CDK4 and at CDK6 was above 60% in each case.
As to `CC(=O)c1c(C)c2cnc(Nc3ccc(N4CCN(C(=O)N5CCC(CCN6CCN(c7ccc8c(c7)CN(C7CCC(=O)NC7=O)C8=O)CC6)CC5)CC4)cn3)nc2n(C2CCCC2)c1=O` (centres unmarked) [Compound 20, 3-(5-(4-(2-(1-(4-(6-((6-acetyl-8-cyclopentyl-5-methyl-7-oxo-7,8-dihydropyrido[2,3-d]pyrimidin-2-yl)amino)pyridin-3-yl)piperazine-1-carbonyl)piperidin-4-yl)ethyl)piperazin-1-yl)-1-oxoisoindolin-2-yl)piperidine-2,6-dione], the IC50 in test [1] fell in the range of 50 to 200 nM. At CDK4, this compound showed a DC50 of 50 to 200 nM and a Dmax above 60%. On CDK6, this compound had a DC50 of 50 to 200 nM and a Dmax above 60%.
In the case of `CC(=O)c1c(C)c2cnc(Nc3ccc(N4CCN(C(=O)N5CCN(CCN6CCN(c7ccc8c(c7)C(=O)N(C7CCC(=O)NC7=O)C8=O)CC6)CC5)CC4)cn3)nc2n(C2CCCC2)c1=O` (centres unmarked) [Compound 21, 5-(4-(2-(4-(4-(6-((6-acetyl-8-cyclopentyl-5-methyl-7-oxo-7,8-dihydropyrido[2,3-d]pyrimidin-2-yl)amino)pyridin-3-yl)piperazine-1-carbonyl)piperazin-1-yl)ethyl)piperazin-1-yl)-2-(2,6-dioxopiperidin-3-yl)isoindoline-1,3-dione], the IC50 in test [1] was 50 to 200 nM. At CDK4, the DC50 lay in the range of 50 to 200 nM and the greatest degradation seen (Dmax) is above 60%. On CDK6, this compound displayed a DC50 of 50 to 200 nM and a Dmax above 60%.
As for `CC(=O)c1c(C)c2cnc(Nc3ccc(N4CCN(C(=O)N5CCN(CCN6CCN(c7ccc8c(c7)CN(C7CCC(=O)NC7=O)C8=O)CC6)CC5)CC4)cn3)nc2n(C2CCCC2)c1=O` (centres unmarked) [Compound 22, 3-(5-(4-(2-(4-(4-(6-((6-acetyl-8-cyclopentyl-5-methyl-7-oxo-7,8-dihydropyrido[2,3-d]pyrimidin-2-yl)amino)pyridin-3-yl)piperazine-1-carbonyl)piperazin-1-yl)ethyl)piperazin-1-yl)-1-oxoisoindolin-2-yl)piperidine-2,6-dione], the IC50 in test [1] is above 200 nM. Also, the DC50 on CDK4 and on CDK6 was above 200 nM throughout. For the same compound, the maximal degradation (Dmax) at CDK4 and on CDK6 was above 60% each time.
Take `CC(=O)c1c(C)c2cnc(Nc3ccc(N4CCN(C(=O)N5CCN(CCC6CCN(c7ccc8c(c7)C(=O)N(C7CCC(=O)NC7=O)C8=O)CC6)CC5)CC4)cn3)nc2n(C2CCCC2)c1=O` (centres unmarked) [Compound 23, 5-(4-(2-(4-(4-(6-((6-acetyl-8-cyclopentyl-5-methyl-7-oxo-7,8-dihydropyrido[2,3-d]pyrimidin-2-yl)amino)pyridin-3-yl)piperazine-1-carbonyl)piperazin-1-yl)ethyl)piperidin-1-yl)-2-(2,6-dioxopiperidin-3-yl) isoindoline-1,3-dione]: the IC50 in test [1] was above 200 nM. At CDK4, this compound returned a DC50 above 200 nM and a Dmax above 60%. Besides, at CDK6, the DC50 is above 200 nM and the greatest degradation seen (Dmax) is above 60%.
As to `CC(=O)c1c(C)c2cnc(Nc3ccc(N4CCN(C(=O)N5CCN(CCC6CCN(c7ccc8c(c7)CN(C7CCC(=O)NC7=O)C8=O)CC6)CC5)CC4)cn3)nc2n(C2CCCC2)c1=O` (centres unmarked) [Compound 24, 3-(5-(4-(2-(4-(4-(6-((6-acetyl-8-cyclopentyl-5-methyl-7-oxo-7,8-dihydropyrido[2,3-d]pyrimidin-2-yl)amino)pyridin-3-yl)piperazine-1-carbonyl)piperazin-1-yl)ethyl)piperidin-1-yl)-1-oxoisoindolin-2-yl)piperidine-2,6-dione], the IC50 in test [1] is above 200 nM. On CDK4, the DC50 is above 200 nM and the Dmax was above 50%. Also, on CDK6, the 50% degradation concentration (DC50) is above 200 nM and the Dmax was above 50%.
Turning to `CC(=O)c1c(C)c2cnc(Nc3ccc(N4CCN(C(=O)N5CCC(CCC6CCN(c7ccc8c(c7)C(=O)N(C7CCC(=O)NC7=O)C8=O)CC6)CC5)CC4)cn3)nc2n(C2CCCC2)c1=O` (centres unmarked) [Compound 25, 5-(4-(2-(1-(4-(6-((6-acetyl-8-cyclopentyl-5-methyl-7-oxo-7,8-dihydropyrido[2,3-d]pyrimidin-2-yl)amino)pyridin-3-yl)piperazine-1-carbonyl)piperidin-4-yl)ethyl)piperidin-1-yl)-2-(2,6-dioxopiperidin-3-yl)isoindoline-1,3-dione], the IC50 in test [1] was in the range of 50 to 200 nM. In addition, the DC50 at CDK4 is above 200 nM; on CDK6, 50 to 200 nM. The Dmax at CDK4 and on CDK6 was above 60% in each case.
In the case of `CC(=O)c1c(C)c2cnc(Nc3ccc(N4CCN(C(=O)N5CCC(CCC6CCN(c7ccc8c(c7)CN(C7CCC(=O)NC7=O)C8=O)CC6)CC5)CC4)cn3)nc2n(C2CCCC2)c1=O` (centres unmarked) [Compound 26, 3-(5-(4-(2-(1-(4-(6-((6-acetyl-8-cyclopentyl-5-methyl-7-oxo-7,8-dihydropyrido[2,3-d]pyrimidin-2-yl)amino)pyridin-3-yl)piperazine-1-carbonyl)piperidin-4-yl)ethyl)piperidin-1-yl)-1-oxoisoindolin-2-yl)piperidine-2,6-dione], the IC50 in test [1] was 50 to 200 nM. For the same compound, on CDK4, the DC50 is above 200 nM and the Dmax was above 50%. On CDK6, the DC50 was above 200 nM and the maximal degradation (Dmax) is above 50%.
